Experimental data: patent US11634396B2 (priority 2021, dated 2023)
Like-named read-outs stand apart in the source and are kept apart here.

What was measured:
human mOR = human mOR (Homo sapiens (Human), UniProt P35372); experiment: cell-based
kOR (OPRK1) = kOR (OPRK1) (Homo sapiens (Human), UniProt P41145); experiment: KOR β-Arrestin antagonist assay (Tango OPRK1-bla U2OS cells); format: cell-based
From the text: KOR β-Arrestin Agonist and Antagonist assays were preformed using the Tango™ OPRK1-bla U2OS cells from Invitrogen and purchased from ThermoFisher, catalog number K1576.

human dOR = human dOR (Homo sapiens (Human), UniProt P41143); experiment: cell-based
[1] = CHO Tag-lite human mOR stable cell line, forskolin 4 μM and DAMGO at EC90, read-out: mOR cAMP Antagonist Assay IC50
[2] = dOR cAMP Agonist Assay EC50, CHO Tag-lite human dOR stable cell line, forskolin

Chain of kOR (OPRK1) (P41145 whole entry): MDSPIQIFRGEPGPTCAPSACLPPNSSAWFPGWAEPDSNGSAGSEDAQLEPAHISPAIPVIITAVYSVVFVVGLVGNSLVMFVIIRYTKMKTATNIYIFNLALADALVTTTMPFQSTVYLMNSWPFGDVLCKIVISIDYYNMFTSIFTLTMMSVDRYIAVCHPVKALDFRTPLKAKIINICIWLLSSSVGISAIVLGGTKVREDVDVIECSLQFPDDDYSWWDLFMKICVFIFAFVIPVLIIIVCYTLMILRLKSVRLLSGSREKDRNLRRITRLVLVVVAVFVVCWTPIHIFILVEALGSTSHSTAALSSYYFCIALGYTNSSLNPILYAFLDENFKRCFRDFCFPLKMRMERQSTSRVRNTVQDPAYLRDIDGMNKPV
Chain of human mOR (P35372 whole entry): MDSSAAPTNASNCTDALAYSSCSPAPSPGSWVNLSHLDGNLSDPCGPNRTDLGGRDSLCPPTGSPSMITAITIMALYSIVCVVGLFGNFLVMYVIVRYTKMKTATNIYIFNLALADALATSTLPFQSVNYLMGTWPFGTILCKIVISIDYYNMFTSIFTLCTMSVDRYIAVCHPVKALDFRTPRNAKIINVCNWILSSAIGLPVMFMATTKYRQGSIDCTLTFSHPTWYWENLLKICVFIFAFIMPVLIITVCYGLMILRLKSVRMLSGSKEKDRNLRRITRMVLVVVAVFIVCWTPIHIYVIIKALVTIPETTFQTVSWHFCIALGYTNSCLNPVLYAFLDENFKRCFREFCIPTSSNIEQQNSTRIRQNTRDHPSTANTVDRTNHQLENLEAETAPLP
Chain of human dOR (P41143 whole entry): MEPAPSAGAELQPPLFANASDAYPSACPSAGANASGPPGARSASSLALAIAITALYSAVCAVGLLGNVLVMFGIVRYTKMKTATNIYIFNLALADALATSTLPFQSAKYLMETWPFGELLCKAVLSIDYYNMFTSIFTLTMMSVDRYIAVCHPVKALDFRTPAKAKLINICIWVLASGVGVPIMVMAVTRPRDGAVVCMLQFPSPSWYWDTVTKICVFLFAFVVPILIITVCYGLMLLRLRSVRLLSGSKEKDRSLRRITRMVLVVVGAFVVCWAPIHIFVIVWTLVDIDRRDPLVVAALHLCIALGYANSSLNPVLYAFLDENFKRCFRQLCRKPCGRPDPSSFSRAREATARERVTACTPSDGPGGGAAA

How did the IC50 (human mOR; [1]) turn out when `Cc1cc(C(N)=O)cc(C)c1C[C@@H](CNC(=O)C1CC1c1ncccn1)N(C)C` (stereo partly drawn) [Compound 6, 4-((2S)-2-(dimethylamino)-3-(2-(pyrimidin-2-yl)cyclopropane-1-carboxamido)propyl)-3,5-dimethylbenzamide] was run?
The IC50 was 300 to 3000 nM.

What about the IC50 (kOR (OPRK1)) of the same compound?
Its IC50 is 300 to 3000 nM.

What does the source list for `Cc1ccc([C@H](CC(=O)NC[C@H](Cc2ccc(C(N)=O)c(F)c2Cl)N(C)C)C2(C(F)(F)F)CC2)cn1` [Compound 17, 3-chloro-4-[(2S)-2-(dimethylamino)-3-[(3S)-3-(6-methylpyridin-3-yl)-3-[1-(trifluoromethyl)cyclopropyl]propanamido]propyl]-2-fluorobenzamide]?
IC50 (human mOR; [1]): > 3000 nM; IC50 (kOR (OPRK1)): < 300 nM

What does the source list for `CN(C)[C@H](CNC(=O)C[C@H](c1cccnc1)C1(C(F)(F)F)CC1)Cc1ccc(C(N)=O)c(F)c1Cl` [Compound 18, 3-chloro-4-[(2S)-2-(dimethylamino)-3-[(3R)-3-(pyridin-3-yl)-3-[1-(trifluoromethyl)cyclopropyl]propanamido]propyl]-2-fluorobenzamide]?
IC50 (human mOR): > 3000 nM; IC50 (kOR (OPRK1)): < 300 nM

For `CN(C)[C@H](CNC(=O)CC(c1ncc(Cl)cn1)C1(C(F)(F)F)CC1)Cc1ccc(C(N)=O)c(F)c1Cl` (stereo partly drawn) [Compound 22, 3-chloro-4-[(2S)-3-[3-(5-chloropyrimidin-2-yl)-3-[1-(trifluoromethyl)cyclopropyl]propanamido]-2-(dimethylamino)propyl]-2-fluorobenzamide], which IC50 (human mOR; [1]) is on record?
The IC50 was < 300 nM.

And the IC50 (kOR (OPRK1))?
The IC50 was < 300 nM.

With `Cc1ncc([C@@H](CC(=O)NC[C@H](Cc2ccc(C(N)=O)cc2Cl)N(C)C)C2(C(F)(F)F)CC2)cn1` [Compound 24, 3-chloro-4-[(2S)-2-(dimethylamino)-3-[(3R)-3-(2-methylpyrimidin-5-yl)-3-[1-(trifluoromethyl)cyclopropyl]propanamido]propyl]benzamide] as the compound, how does the IC50 (human mOR) read?
Its IC50 is < 300 nM.

And the IC50 (kOR (OPRK1))?
The IC50 was < 300 nM.

With `Cc1ncc([C@@H](CC(=O)NC[C@H](Cc2ccc(C(N)=O)cc2Cl)N(C)C)C2CC2)cn1` [Compound 25, 3-chloro-4-[(2S)-3-[(3S)-3-cyclopropyl-3-(2-methylpyrimidin-5-yl)propanamido]-2-(dimethylamino)propyl]benzamide] as the compound, how does the IC50 (human mOR) read?
The IC50 was < 300 nM.

What about the IC50 (kOR (OPRK1)) of the same compound?
The IC50 was 300 to 3000 nM.

Which results are given for `CN(C)[C@H](CNC(=O)C[C@H](c1cccnc1)C1(C(F)(F)F)CC1)Cc1ccc(C(N)=O)cc1Cl` [Compound 28, 3-chloro-4-((S)-2-(dimethylamino)-3-((R)-3-(pyridin-3-yl)-3-(1-(trifluoromethyl)cyclopropyl)propanamido)propyl)benzamide]?
IC50 (human mOR): < 300 nM; IC50 (kOR (OPRK1)): < 300 nM

What does the source list for `CN(C)[C@H](CNC(=O)CC(c1ccc(C(F)(F)F)nc1)C1(C(F)(F)F)CC1)Cc1ccc(C(N)=O)cc1Cl` (stereo partly drawn) [Compound 32, 3-chloro-4-[(2S)-2-(dimethylamino)-3-{3-[1-(trifluoromethyl)cyclopropyl]-3-[6-(trifluoromethyl)pyridin-3-yl]propanamido}propyl]benzamide]?
IC50 (human mOR; [1]): < 300 nM; IC50 (kOR (OPRK1)): < 300 nM

With `COc1ncc(C(CC(=O)NC[C@H](Cc2ccc(C(N)=O)cc2Cl)N(C)C)C2(C(F)(F)F)CC2)cn1` (stereo partly drawn) [Compound 33, 3-chloro-4-[(2S)-2-(dimethylamino)-3-[3-(2-methoxypyrimidin-5-yl)-3-[1-(trifluoromethyl)hydropropyl]propanamido]propyl]benzamide] as the compound, how does the IC50 (human mOR) read?
The IC50 was < 300 nM.

And the IC50 (kOR (OPRK1))?
Its IC50 is < 300 nM.

How did the IC50 (human mOR) turn out when `Cc1ncc(C(CC(=O)NC[C@H](Cc2ccc(C(N)=O)cc2Cl)N(C)C)C2(C(F)(F)F)CC2)cn1` (stereo partly drawn) [Compound 34, 3-chloro-4-[(2S)-2-(dimethylamino)-3-[3-(2-methylpyrimidin-5-yl)-3-[1-(trifluoromethyl)cyclopropyl]propanamido]propyl]benzamide] was run?
The IC50 was < 300 nM.

What about the IC50 (kOR (OPRK1)) of the same compound?
Its IC50 is < 300 nM.

For `COc1ccc(C(CC(=O)NC[C@H](Cc2ccc(C(N)=O)cc2Cl)N(C)C)C2(C(F)(F)F)CC2)cn1` (stereo partly drawn) [Compound 35, 3-chloro-4-[(2S)-2-(dimethylamino)-3-[3-(6-methoxypyridin-3-yl)-3-[1-(trifluoromethyl)cyclopropyl]propanamido]propyl]benzamide], which IC50 (human mOR) is on record?
Its IC50 is < 300 nM.

What about the IC50 (kOR (OPRK1)) of the same compound?
Its IC50 is < 300 nM.

Which results are given for `CN(C)[C@H](CNC(=O)CC(c1cncc(F)c1)C1(C(F)(F)F)CC1)Cc1ccc(C(N)=O)cc1Cl` (stereo partly drawn) [Compound 36, 3-chloro-4-[(2S)-2-(dimethylamino)-3-[3-(5-fluoropyridin-3-yl)-3-[1-(trifluoromethyl)cyclopropyl]propanamido]propyl]benzamide]?
IC50 (human mOR; [1]): < 300 nM; IC50 (kOR (OPRK1)): < 300 nM

With `CN(C)[C@H](CNC(=O)CC(c1ccc(Cl)cn1)C1(C(F)(F)F)CC1)Cc1ccc(C(N)=O)cc1Cl` (stereo partly drawn) [Compound 37, 3-chloro-4-[(2S)-3-[3-(5-chloropyridin-2-yl)-3-[1-(trifluoromethyl)cyclopropyl]propanamido]-2-(dimethylamino)propyl]benzamide] as the compound, how does the IC50 (human mOR) read?
Its IC50 is < 300 nM.

And the IC50 (kOR (OPRK1))?
The IC50 was < 300 nM.

How did the IC50 (kOR (OPRK1)) turn out when `CNC(=O)c1ccc(C[C@@H](CNC(=O)C[C@@H](c2ccc(Cl)cn2)C2(C(F)(F)F)CC2)N(C)C)c(C)c1` [Compound 137, 4-((S)-3-((R)-3-(5-chloropyridin-2-yl)-3-(1-(trifluoromethyl)cyclopropyl)propanamido)-2-(dimethylamino)propyl)-N,3-dimethylbenzamide] was run?
The IC50 was < 300 nM.

How did the IC50 (kOR (OPRK1)) turn out when `CNC(=O)c1ccc(C[C@@H](CNC(=O)C[C@H](c2ccc(Cl)cn2)C2(C(F)(F)F)CC2)N(C)C)c(C)c1` [Compound 138, 4-((S)-3-((S)-3-(5-chloropyridin-2-yl)-3-(1-(trifluoromethyl)cyclopropyl)propanamido)-2-(dimethylamino)propyl)-N,3-dimethylbenzamide] was run?
The IC50 was < 300 nM.

How did the EC50 (human dOR; [2]) turn out when `CN(C)[C@H](CNC(=O)C[C@@H](c1ccccc1)C1CC1)Cc1ccc2c(c1)CC(=O)N2` [Compound 186, (R)-3-cyclopropyl-N-((S)-2-(dimethylamino)-3-(2-oxoindolin-5-yl)propyl)-3-phenylpropanamide] was run?
The EC50 was 300 to 3000 nM.

What about the IC50 (human mOR) of the same compound?
Its IC50 is < 300 nM.

With `C[C@@H](CC(=O)NC[C@H](Cc1ccc2c(c1)OCC(=O)N2)N(C)C)c1ccccc1` [Compound 187, (S)-N-((S)-2-(dimethylamino)-3-(3-oxo-3,4-dihydro-2H-benzo[b][1,4]oxazin-7-yl)propyl)-3-phenylbutanamide] as the compound, how does the EC50 (human dOR; [2]) read?
Its EC50 is < 300 nM.

What about the IC50 (human mOR) of the same compound?
Its IC50 is < 300 nM.

What does the source list for `CC(C)C[C@@H](CC(=O)NC[C@H](Cc1ccc2[nH]ncc2c1)N(C)C)c1ccccc1` [Compound 214, (S)-N-((S)-2-(dimethylamino)-3-(1H-indazol-5-yl)propyl)-5-methyl-3-phenylhexanamide]?
EC50 (human dOR; [2]): < 300 nM; IC50 (human mOR; [1]): < 300 nM

For `C[C@H](CC(=O)NC[C@H](Cc1ccc2[nH]ncc2c1)N(C)C)c1cccc(F)c1` [Compound 215, (R)-N-((S)-2-(dimethylamino)-3-(1H-indazol-5-yl)propyl)-3-(3-fluorophenyl)butanamide], which EC50 (human dOR; [2]) is on record?
Its EC50 is 300 to 3000 nM.

What about the IC50 (human mOR; [1]) of the same compound?
Its IC50 is < 300 nM.

How did the EC50 (human dOR; [2]) turn out when `C[C@@H](CC(=O)NC[C@H](Cc1ccc2[nH]ncc2c1)N(C)C)c1ccccn1` [Compound 216, (S)-N-((S)-2-(dimethylamino)-3-(1H-indazol-5-yl)propyl)-3-(pyridin-2-yl)butanamide] was run?
Its EC50 is 300 to 3000 nM.

And the IC50 (human mOR; [1])?
The IC50 was < 300 nM.

Which EC50 (human dOR; [2]) does the source give for `Cc1ccc([C@@H](C)CC(=O)NC[C@H](Cc2ccc3[nH]ncc3c2)N(C)C)cc1` [Compound 217, (S)-N-((S)-2-(dimethylamino)-3-(1H-indazol-5-yl)propyl)-3-(p-tolyl)butanamide] here?
The EC50 was 300 to 3000 nM.

And the IC50 (human mOR; [1])?
The IC50 was < 300 nM.

`C[C@@H](CC(=O)NC[C@H](Cc1ccc2[nH]ncc2c1)N(C)C)c1ccc(F)cc1` [Compound 218, (S)-N-((S)-2-(dimethylamino)-3-(1H-indazol-5-yl)propyl)-3-(4-fluorophenyl)butanamide] was tested. Which EC50 (human dOR; [2]) did it give?
Its EC50 is > 3000 nM.

And the IC50 (human mOR)?
Its IC50 is < 300 nM.

With `CC(C)[C@@H](CC(=O)NC[C@H](Cc1ccc2[nH]ncc2c1)N(C)C)c1ccccc1` [Compound 219, (R)-N-((S)-2-(dimethylamino)-3-(1H-indazol-5-yl)propyl)-4-methyl-3-phenylpentanamide] as the compound, how does the EC50 (human dOR; [2]) read?
The EC50 was 300 to 3000 nM.

What about the IC50 (human mOR; [1]) of the same compound?
The IC50 was < 300 nM.

Which EC50 (human dOR; [2]) does the source give for `C[C@@H](CC(=O)NC[C@H](Cc1ccc2[nH]ncc2c1)N(C)C)c1ccc(Cl)cc1` [Compound 220, (S)-3-(4-chlorophenyl)-N-((S)-2-(dimethylamino)-3-(1H-indazol-5-yl)propyl)butanamide] here?
The EC50 was > 3000 nM.

And the IC50 (human mOR)?
The IC50 was < 300 nM.

Which EC50 (human dOR; [2]) does the source give for `CN(C)[C@H](CNC(=O)CC(C)(C)c1ccccc1)Cc1ccc2[nH]ncc2c1` [Compound 221, (S)-N-(2-(dimethylamino)-3-(1H-indazol-5-yl)propyl)-3-methyl-3-phenylbutanamide] here?
Its EC50 is > 3000 nM.

And the IC50 (human mOR)?
The IC50 was < 300 nM.

For `CN(C)[C@H](CNC(=O)C[C@H](c1ccccc1)C1CC1)Cc1ccc(O)cc1Cl` [Compound 263, (S)-N-((S)-3-(2-chloro-4-hydroxyphenyl)-2-(dimethylamino)propyl)-3-cyclopropyl-3-phenylpropanamide], which EC50 (human dOR; [2]) is on record?
The EC50 was < 300 nM.

What about the IC50 (human mOR) of the same compound?
The IC50 was < 300 nM.

How did the EC50 (human dOR; [2]) turn out when `CC(=O)Oc1ccc(C[C@@H](CNC(=O)C[C@H](C)c2ccccc2)N(C)C)cc1Cl` [Compound 275, 2-chloro-4-((S)-2-(dimethylamino)-3-((S)-3-phenylbutanamido)propyl)phenyl acetate] was run?
Its EC50 is < 300 nM.

What about the IC50 (human mOR) of the same compound?
The IC50 was < 300 nM.

Which results are given for `CN1Cc2cc(O)ccc2C[C@H]1CNC(=O)C[C@H](c1ccccc1)C(C)(C)C` [Compound 323, (S)-N-(((S)-7-hydroxy-2-methyl-1,2,3,4-tetrahydroisoquinolin-3-yl)methyl)-4,4-dimethyl-3-phenylpentanamide]?
EC50 (human dOR; [2]): < 300 nM; IC50 (human mOR): < 300 nM

With `CC(C)C[C@H](CC(=O)NC[C@H](Cc1ccc(-c2cn[nH]c2)cc1Cl)N(C)C)c1ccccc1` [Compound 326, (3R)-N-[(2S)-3-[2-chloro-4-(1H-pyrazol-4-yl)phenyl]-2-(dimethylamino)propyl]-5-methyl-3-phenylhexanamide] as the compound, how does the EC50 (human dOR; read-out: dOR cAMP Agonist Assay EC50) read?
The EC50 was > 3000 nM.

And the IC50 (human mOR; read-out: mOR cAMP Antagonist Assay IC50)?
The IC50 was 300 to 3000 nM.
